In patent publication US10478501B2, “Method of treating disorders using a pharmaceutical composition of oligopeptides” (Merck Patent GmbH, priority 2011, dated 2019):

Columns and labels:
[1] = tested on: HNSCC lines (FaDu, SCC-15 and SCC-25); experiment: Cellular radiosensitivity by clonogenic cell survival assay, HNSCC lines; type: cell-based, human; conditions: combined with γ-radiation
Procedure: (§1) Methods: Three non-small cell lung carcinoma lines (NSCLCs) (H460, A549 and H1299) and three head and neck squamous cell carcinoma lines (HNSCCs) (FaDu, SCC-15 and SCC-25) cell lines were used for in vitro experiments. Of these, H460 and FaDu were used for in vivo testing when grown as xenografts in nude mice. The effects of cilengitide (1-50 μg/ml, 24 h) on in vitro cell viability was determined by MTS assay and on cellular radiosensitivity by clonogenic cell survival assay after exposing the cells to graded single doses of γ-radiation with or without cilengitide (given 1 h before and continued for 23 h after irradiation). In vivo effect of cilengitide on radioresponse of xenografts was assessed by tumor growth delay. When tumor xenografts reached 7 mm in diameter cilengitide treatment (30 or 60 mg/d/5 or 10 days) was initiated followed by a single dose of 15 Gy local radiation (using ^137Cs γ-ray source), when the tumors reached 8 mm.

[2] = tested on: H1299; experiment: Cellular radiosensitivity by clonogenic cell survival assay, H1299; type: cell-based, human; conditions: combined with γ-radiation, given 1 h before and continued 23 h after irradiation
Procedure: as §1

[3] = tested on: BT474 human breast cancer cells; experiment: Her2+ breast cancer model BT474, Cilengitide in combination with Herceptin; type: in vivo, Balbc nu/nu mice; conditions: 300 mg/kg Cilengitide s.c. daily
Text: BT474 human breast cancer cells were subcutaneously injected into Balbc nu/nu mice. The mice were randomized into different treatment groups when the tumors reached a mean tumor volume of approximately 125 mm^3.

[4] = tested on: MDA-MB-231 breast cancer bone metastases; experiment: Experimental breast cancer bone metastases in nude rats: DCE-MRI parameters amplitude A and kep; type: in vivo, nude rats (RNU strain)
Procedure: Nude rats (RNU strain) are obtained from Harlan-Winkelmann GmbH (Borchen, Germany) at the age of six weeks and housed in a specific pathogen-free environment in a mini barrier system of the central animal facility. Animals are kept under controlled conditions (21±2° C. room temperature, 60% humidity, 12 h light-dark rhythm) and offered autoclaved food and water ad libitum. Sub-confluent MDAMB-231 cells are harvested using 0.05% Trypsin-EDTA (Gibco®; Invitrogen, Karlsruhe, Germany) counted on a Neubauer's chamber and resuspended in RPMI-1640 to a final concentration of 10^5 cells in 200 μl. Rats are anesthetized using a mixture of nitrous oxide (1 l/min), oxygen (0.5 l/min) and isoflurane (1.5 vol. %). Arterial branches of the right hind leg are dissected and 10^5 cells injected into the superficial epigastric artery as described previously.^28 Bone metastases established and are observed exclusively in the femur, tibia and fibula of the right hind leg. 30 days after cancer cell transplantation, rats (n=24) are randomly divided into two groups, one group receiving the cyclic RGD-peptide inhibitor of αvβ3/αvβ5 integrins (cilengitide, EMD 121974^14, 17, 29; Merck, Darmstadt, Germany) intraperitoneally five times per week (75 mg/kg; n=12 rats) and the other, sham-treated group, serving as a control (n=12 rats). The observation period of all animals is 55 days and no rat in the study dies ahead of schedule.
After the inoculation of cancer cells each rat is imaged at days 30, 35, 45 and 55 using (i) a flat-panel equipped volumetric computed tomograph (Volume CT, Siemens, Germany) and (ii) a 1.5T clinical magnetic resonance scanner (Symphony, Siemens, Erlangen, Germany) equipped with a home-built receive-transmit coil (cylindrical volume resonator with an inner diameter of 83 mm and a usable length of 120 mm). Prior to in vivo imaging with VCT and MRI, rats are anesthetized with nitrous oxide, oxygen and isoflurane as described above.
T2-weighted imaging is performed using a turbo spin echo sequence (orientation axial, TR 3240 ms, TE 81 ms, matrix 152×256, FOV 90×53.4 mm^2, slice thickness 1.5 mm, 3 averages, scan time 3 min 40 s). For dynamic contrast-enhanced MRI, a saturation recovery turbo flash sequence through the largest diameter of the tumor (orientation axial, TR 373 ms, TE 1.86 ms, matrix 192×144, FOV 130×97.5 mm, slice thickness 5 mm, measurements 512, averages 1, scan time 6 min 55 s) is used. After 20 s baseline, 0.1 mmol/kg Gd-DTPA (Magnevist; Bayer Schering Pharma, Berlin, Germany) is intravenously infused for a time period of 10 s.
Unenhanced VCT images and MRI-acquired T2-weighted images are analyzed using the Medical Imaging Interaction Toolkit (MITK, Heidelberg, Germany) to determine volumes of osteolytic lesions and soft tissue components, respectively. DCE-MRI acquired data is analyzed using the Dynalab workstation (Mevis Research, Bremen, Germany) according to the two-compartment model of Brix to determine the parameters amplitude A and exchange rate constant kep, as described.^23, 30 Briefly, the injected contrast media is distributed in both compartments (intravascular space and extravascular, interstitial space). The accumulation of contrast agent in these compartments over time is characterized by the amplitude A (associated with blood volume), whereas the exchange of contrast agent between the intravascular space and the interstitial space is characterized by the exchange rate constant kep (associated with vessel permeability). For determination of the respective values of the amplitude A and kep of bone metastases in our study, a region of interest is placed around the soft tissue component on color maps for A and kep, respectively, using the Dynalab workstation (Mevis Research, Bremen, Germany). […]

[5] = tested on: SCC-15; experiment: In vitro cell viability by MTS assay, SCC-15; type: cell-based, human; conditions: 5 μg/ml, 24 h
Procedure: as §1

[6] = tested on: 4T1 mouse breast tumour cells; experiment: Study 006: 4T1 survival model; type: in vivo, female BALB/c mice; conditions: 300 mg/kg daily s.c. as Composition according to Example 18; mastectomy 11 days post-inoculation
Procedure: 4T1 mouse breast tumour cells were orthotopically inoculated into the fourth mammary fat pad of female BALB/c mice. Treatment started seven days post-inoculation (Day 0), when the mice were randomised, based on tumour size. Animals received treatment with either Vehicle Control (Placebo), EMD 121974 (75, 150 or 300 mg/kg as a Composition according to Example 18), or Taxol® (8 mg/kg). The Vehicle Control and EMD 121974 were administered daily by subcutaneous injection. Taxol® was administered three times weekly by intravenous injection. To assess the survival of tumor bearing animals a mastectomy was performed 11 days post-inoculation (4 days after treatment start). Animals were monitored daily for clinical symptoms and were culled if body weight loss in any animal exceeded 15% of initial weight, the animal was culled or disease progression was observed (e.g. severe breathing difficulties). Body weight measurements were made three times per week.

CC(C)[C@H]1C(=O)N[C@@H](CCCN=C(N)N)C(=O)NCC(=O)N[C@@H](CC(=O)O)C(=O)N[C@H](Cc2ccccc2)C(=O)N1C [Cilengitide, cyclo-(Arg-Gly-Asp-DPhe-NMeVal)]
effect on radiosensitivity of HNSCC lines [1]: only an additive effect | radiosensitivity enhancement factor [2]: 1.3 | tumor growth of Her2+ BT474 tumors under monotherapy [3]: did not inhibit the tumor growth | DCE-MRI parameter exchange rate constant kep, mean relative value ([4]; day 35 (controls 86%; p>0.05)): 69 % of initial value | DCE-MRI parameter amplitude A, mean relative value ([4]; day 35 post inoculation (controls 106%; p>0.05)): 97 % of initial value | DCE-MRI parameter exchange rate constant kep, mean relative value ([4]; day 45 (controls 63%; p>0.05)): 88 % of initial value | DCE-MRI parameter amplitude A, mean relative value ([4]; day 45 (controls 125%; p<0.05)): 102 % of initial value | DCE-MRI parameter exchange rate constant kep, mean relative value ([4]; day 55 (controls 40%; p<0.05)): 72 % of initial value | DCE-MRI parameter amplitude A, mean relative value ([4]; day 55 (controls 105%; p<0.05)): 93 % of initial value | in vitro viability [5]: 71.4±2.2% | survival of tumor bearing animals [6]: comparable survival as Taxol
